{
  "source": "patent US20240209014A1",
  "about": "“NOVEL SPINOSYN PRODRUGS” (Acies Bio d.o.o., priority 2021, published 2024)",
  "key": {"[1]": {"system": "honey bees (Apis melifera carnica, Pollman 1879)", "experiment": "Single dose acute oral toxicity test on adult worker honey bees", "type": "in vivo", "method": "Toxicity of the compounds of this invention towards honey bees (Apis melifera carnica, Pollman 1879) was assessed in comparison with commercially available samples of spinosad (LGC (Dr. Ehrenstorfer); Product code: DRE-C16972830) and the naturally produced compound butenyl spinosyn alpha 1. Solutions of spinosyn compounds were prepared in 100 mM ammonium acetate, pH=5, and later diluted in 50% (500 g/L) sucrose solution in water to final concentrations. Two final concentrations were used for each compound, 7.76 μmol/L and 15.53 μmol/L.\nSingle dose acute oral toxicity tests were conducted on adult worker bees according to previously described standard methods (Medrzycki at el., (2013)). Each compound and condition were tested in two parallels. Briefly, each parallel experiment consisted of 5 cages with 20 honey bees per cage. […] After uptake of the solutions honey bees were supplied with standard 50% sucrose solution and observed at 24 h and 48 h and the number of dead and live bees was estimated.\nAmmonium acetate solution with pH 5 was used as the negative control."}, "Kinetic solubility assay": {"experiment": "Kinetic solubility assay", "type": "physicochemical", "conditions": "dose conc 200 μM, 25±2° C.", "method": "Solubility of the compounds of the invention was assessed using kinetic solubility assay and compared to solubility of butenyl spinosyn. Stock solutions of spinosyn compounds were prepared in DMSO at mM concentration). 10 uL of the stock solutions were added into 490 of in K.S. 5.4 buffer of pH 5.4 (80 mM phosphoric acid, acetic acid, boric acid buffer, adjusted the pH to pH 5.4 with 1 N HCl and 1N NaOH) or K.S. 7.4 buffer with pH of 7.4 (80 mM phosphoric acid, acetic acid, boric acid buffer, adjusted the pH to pH 7.4 with 1 N HCl and 1N NaOH). The solutions were incubated with shaking at room […] temperature (25±2° C.) for 24 hours. 200 uL of each solution were then transferred into a new MultiScreen filter plate (Membrane of polycarbonate) and filtered by millipore vacuum manifold, and the filtrate was collected. The concentrtions of tested compounds in the filtered samples were analyzed by HPLC analysis calibrated by a standard curve generated by injection of 3 standard solutions of the relevant compound with concentrations of 1, 20, 200 μM."}, "[2]": {"system": "larvae of Ostrinia nubilialis (development stage L1)", "experiment": "Insecticide efficacy, corn leaf dip, Henderson-Tilton method", "type": "in vivo", "method": "Insecticide activities of the compounds of this invention were assessed in comparison with commercially available samples of spinosad (LGC (Dr. Ehrenstorfer); Product code: DRE-C16972830) and spinetoram (LGC (Dr. Ehrenstorfer); Product code: DRE-C16972770). Solutions of spinosyn compounds were prepared by adding 0.05% Tween 80, lowering pH to 5.95 and sonicating. Two concentrations of each compound were used, 0.1 μg/ml and 0.3 μg/mL, with each condition tested in four parallels.\nFreshly collected corn leaves were dipped into the prepared solutions. After dipping leaves were left to dry at room temperature for 1 hour. Each dry leaf was then infested with 4 larvae of Ostrinia nubilialis (development stage L1), and the experimental device was incubated at 21° C.-23° C. for 24 h in order to optimize insect development. At three timings post infestation (1 day, 3 days and 6 days), the insecticide efficacy is evaluated from the number of living larvae using the Henderson-Tilton method. Untreated control was integrated for normalization and validation of larvae health."}, "[3]": {"experiment": "Stability of J1Aa and J7a at different pH values (LC-MS)", "type": "physicochemical", "method": "Stability of compounds J1Aa and J7a was evaluated at different pH values. Differential stability/conversion to the active ingredient is expected to result in condition-specific activation and thereby to higher specificity towards target pests.\nStock solutions of the compounds were prepared at concentration of 0.1 mol/L. 10 μL of the stock solutions were transferred to 0.75 ml of the buffer solutions with pH values of 4, 5, 9 and 11. […] After specified times samples were analyzed using LC-MS. The compounds J1Aa and J7a and the active compound spinosyn A were quantified. It is seen that the two compounds are converted to the active form preferably in alkaline conditions."}, "[4]": {"conditions": "single oral dose 0.078 nmol/bee, 24 h after application"}, "[5]": {"conditions": "single oral dose 0.078 nmol/bee, 48 h after application"}, "[6]": {"conditions": "single oral dose 0.155 nmol/bee, 24 h after application"}, "[7]": {"conditions": "single oral dose 0.155 nmol/bee, 48 h after application"}},
  "note": "Read-outs that look alike come from different tables or passages of the source.",
  "data": [
    {"molecule": "CC/C=C/[C@H]1CCC[C@H](OC2CCC(N(C)C)C(C)O2)[C@@H](C)C(=O)C2=C[C@@H]3[C@@H](C=C[C@@H]4C[C@@H](OC5OC(C)C(OC)C(OC)C5OC)C[C@@H]34)[C@@H]2CC(=O)O1", "note": "(stereo partly drawn) [butenyl spinosyn, Butenyl spinosyn α1, reference compound]", "values": [
      {"measurement": "toxicity to honey bees compared to corresponding derivatives (in words)", "setting": "[1]; acute oral toxicity test", "value": "higher toxicity to honey bees"},
      {"measurement": "% of surviving honey bees", "setting": "[1]; [4]", "value": 73, "unit": "%"},
      {"measurement": "% of surviving honey bees", "setting": "[1]; [5]", "value": 53, "unit": "%"},
      {"measurement": "% of surviving honey bees", "setting": "[1]; [6]", "value": 42, "unit": "%"},
      {"measurement": "% of surviving honey bees", "setting": "[1]; [7]", "value": 18, "unit": "%"},
      {"measurement": "solubility kinetic at 24 h", "setting": "Kinetic solubility assay; K.S. 5.4 buffer, read-out: Kinetic Solubility pH = 5.4", "value": 183.17, "unit": "µM"},
      {"measurement": "solubility kinetic at 24 h", "setting": "Kinetic solubility assay; K.S. 7.4 buffer, read-out: Kinetic Solubility pH = 7.4", "value": 3.52, "unit": "µM"}
    ]},
    {"molecule": "spinetoram [Spinoteram, reference compound]", "values": [
      {"measurement": "% Efficacy", "setting": "[2]; dose 0.1 μg a.i./ml, 1 day post infestation", "value": 27, "unit": "%"},
      {"measurement": "% Efficacy", "setting": "[2]; dose 0.1 μg a.i./ml, 3 days post infestation", "value": 60, "unit": "%"},
      {"measurement": "% Efficacy", "setting": "[2]; dose 0.1 μg a.i./ml, 6 days post infestation", "value": 85, "unit": "%"},
      {"measurement": "% Efficacy", "setting": "[2]; dose 0.3 μg a.i./ml, 1 day post infestation", "value": 31, "unit": "%"},
      {"measurement": "% Efficacy", "setting": "[2]; dose 0.3 μg a.i./ml, 3 days post infestation", "value": 86, "unit": "%"},
      {"measurement": "% Efficacy", "setting": "[2]; dose 0.3 μg a.i./ml, 6 days post infestation", "value": 97, "unit": "%"}
    ]},
    {"molecule": "CC[C@H]1CCC[C@H](OC2CCC([N+](C)(C)COC(=O)C(C)(C)C)C(C)O2)[C@@H](C)C(=O)C2=C[C@@H]3[C@@H](C=C[C@@H]4C[C@@H](OC5OC(C)C(OC)C(OC)C5OC)C[C@@H]34)[C@@H]2CC(=O)O1", "note": "(stereo partly drawn) [Compound J1Aa]", "values": [
      {"measurement": "Compound (J1Aa/J7a) Area % remaining", "setting": "[3]; buffer pH 4, 0.16 h", "value": 94.2, "unit": "%"},
      {"measurement": "SPN Area % (active spinosyn A released)", "setting": "[3]; buffer pH 4, 0.16 h", "value": 5.8, "unit": "%"},
      {"measurement": "Compound (J1Aa/J7a) Area % remaining", "setting": "[3]; buffer pH 4, 6 h", "value": 92.9, "unit": "%"},
      {"measurement": "SPN Area % (active spinosyn A released)", "setting": "[3]; buffer pH 4, 6 h", "value": 7.1, "unit": "%"},
      {"measurement": "Compound (J1Aa/J7a) Area % remaining", "setting": "[3]; buffer pH 4, 12 h", "value": 93.8, "unit": "%"},
      {"measurement": "SPN Area % (active spinosyn A released)", "setting": "[3]; buffer pH 4, 12 h", "value": 6.2, "unit": "%"},
      {"measurement": "Compound (J1Aa/J7a) Area % remaining", "setting": "[3]; buffer pH 4, 24 h", "value": 93.5, "unit": "%"},
      {"measurement": "SPN Area % (active spinosyn A released)", "setting": "[3]; buffer pH 4, 24 h", "value": 6.5, "unit": "%"},
      {"measurement": "Compound (J1Aa/J7a) Area % remaining", "setting": "[3]; buffer pH 5, 0.16 h", "value": 94.1, "unit": "%"},
      {"measurement": "SPN Area % (active spinosyn A released)", "setting": "[3]; buffer pH 5, 0.16 h", "value": 5.9, "unit": "%"},
      {"measurement": "Compound (J1Aa/J7a) Area % remaining", "setting": "[3]; buffer pH 5, 6 h", "value": 91.0, "unit": "%"},
      {"measurement": "SPN Area % (active spinosyn A released)", "setting": "[3]; buffer pH 5, 6 h", "value": 9.0, "unit": "%"},
      {"measurement": "Compound (J1Aa/J7a) Area % remaining", "setting": "[3]; buffer pH 5, 12 h", "value": 92.0, "unit": "%"},
      {"measurement": "SPN Area % (active spinosyn A released)", "setting": "[3]; buffer pH 5, 12 h", "value": 8.0, "unit": "%"},
      {"measurement": "Compound (J1Aa/J7a) Area % remaining", "setting": "[3]; buffer pH 5, 24 h", "value": 90.4, "unit": "%"},
      {"measurement": "SPN Area % (active spinosyn A released)", "setting": "[3]; buffer pH 5, 24 h", "value": 9.6, "unit": "%"},
      {"measurement": "Compound (J1Aa/J7a) Area % remaining", "setting": "[3]; buffer pH 9, 0.16 h", "value": 33.1, "unit": "%"},
      {"measurement": "SPN Area % (active spinosyn A released)", "setting": "[3]; buffer pH 9, 0.16 h", "value": 66.9, "unit": "%"},
      {"measurement": "Compound (J1Aa/J7a) Area % remaining", "setting": "[3]; buffer pH 9, 6 h", "value": 0.0, "unit": "%"},
      {"measurement": "SPN Area % (active spinosyn A released)", "setting": "[3]; buffer pH 9, 6 h", "value": 100.0, "unit": "%"},
      {"measurement": "Compound (J1Aa/J7a) Area % remaining", "setting": "[3]; buffer pH 11, 0.16 h", "value": 0.0, "unit": "%"},
      {"measurement": "SPN Area % (active spinosyn A released)", "setting": "[3]; buffer pH 11, 0.16 h", "value": 100.0, "unit": "%"},
      {"measurement": "% of surviving honey bees", "setting": "[1]; [4]", "value": 99, "unit": "%"},
      {"measurement": "% of surviving honey bees", "setting": "[1]; [5]", "value": 82, "unit": "%"},
      {"measurement": "% of surviving honey bees", "setting": "[1]; [6]", "value": 91, "unit": "%"},
      {"measurement": "% of surviving honey bees", "setting": "[1]; [7]", "value": 42, "unit": "%"}
    ]}
  ]
}
